Earlier results, collected in patent publication US20060193787A1, “Nanoparticle-based drug delivery system” (priority 2005, published 2006).

Details: oral delivery

For CC(=O)O[C@H]1C(=O)[C@@]2(C)[C@H]([C@H](OC(=O)c3ccccc3)[C@]3(O)C[C@H](OC(=O)[C@H](O)[C@@H](NC(=O)c4ccccc4)c4ccccc4)C(C)=C1C3(C)C)[C@]1(OC(C)=O)CO[C@@H]1C[C@@H]2O [paclitaxel], the Bioavailability is given as “less than 1%”.
